Several values for one entry are separate records, joined by “and”; a condition that tells them apart may be missing. Equal entries are not always repeated. Numbers after ± are expanded uncertainties.
Assay: mn = molality of the nth substance listed, in mol/kg
Settings: 101 kPa, Liquid; for viscosity: Capillary tube (Ostwald / Ubbelohde) method; for electrical conductivity: DIgital conductivity meter (306) of Systronics; for speed of sound: Pulse-echo method

CCCCCCCCCCCCOS(=O)(=O)[O-].[Na+] [sodium dodecyl sulfate] + O
Settings	electrical conductivity [S/m]	mass density [kg/m3]	speed of sound	viscosity [mPa·s]
298.15 K, m1 = 0.001	–	–	1497.2 ± 1 m/s	–
298.15 K, m1 = 0.003	–	–	1497.5 ± 1 m/s	–
298.15 K, m1 = 0.005	–	–	1497.8 ± 1 m/s	–
298.15 K, m1 = 0.007	–	–	1497.9 ± 1 m/s	–
298.15 K, m1 = 0.008	–	–	1497.9 ± 1 m/s	–
298.15 K, m1 = 0.01	–	–	1498.1 ± 1 m/s	–
298.15 K, m1 = 0.02	–	–	1498.2 ± 1 m/s	–
298.15 K, m1 = 0.03	–	–	1498.4 ± 1 m/s	–
298.15 K, m1 = 0.05	1 ± 0.6	999.078 ± 0.43	1498.3 ± 1.3 m/s and 1498.3 ± 1 m/s	0.986 ± 0.01
298.15 K, m1 = 0.07	–	–	1498.2 ± 1 m/s	–
298.15 K, m1 = 0.1	2.6 ± 0.6	1000.97 ± 0.44	1498 ± 1.3 m/s	1.133 ± 0.012
298.15 K, m1 = 0.103	–	–	1498.2 ± 1 m/s	–
303.15 K, m1 = 0.001	–	–	1509.5 ± 1 m/s	–
303.15 K, m1 = 0.003	–	–	1509.8 ± 1 m/s	–
303.15 K, m1 = 0.005	–	–	1510.1 ± 1 m/s	–
303.15 K, m1 = 0.007	–	–	1510.1 ± 1 m/s	–
303.15 K, m1 = 0.008	–	–	1510.2 ± 1 m/s	–
303.15 K, m1 = 0.01	–	–	1510.3 ± 1 m/s	–
303.15 K, m1 = 0.02	–	–	1510.3 ± 1 m/s	–
303.15 K, m1 = 0.03	–	–	1510.4 ± 1 m/s	–
303.15 K, m1 = 0.05	–	–	1510.2 ± 1 m/s	–
303.15 K, m1 = 0.07	–	–	1509.9 ± 1 m/s	–
303.15 K, m1 = 0.103	–	–	1509.7 ± 1 m/s	–
308.15 K, m1 = 0.001	–	–	1520.1 ± 1 m/s	–
308.15 K, m1 = 0.003	–	–	1520.4 ± 1 m/s	–
308.15 K, m1 = 0.005	–	–	1520.6 ± 1 m/s	–
308.15 K, m1 = 0.007	–	–	1520.7 ± 1 m/s	–
308.15 K, m1 = 0.008	–	–	1520.7 ± 1 m/s	–
308.15 K, m1 = 0.01	–	–	1520.8 ± 1 m/s	–
308.15 K, m1 = 0.02	–	–	1520.8 ± 1 m/s	–
308.15 K, m1 = 0.03	–	–	1520.7 ± 1 m/s	–
308.15 K, m1 = 0.05	2.1 ± 0.6	995.942 ± 0.44	1520.3 ± 1 m/s and 1520.2 ± 1.3 m/s	0.79 ± 0.009
308.15 K, m1 = 0.07	–	–	1519.9 ± 1 m/s	–
308.15 K, m1 = 0.1	3.4 ± 0.6	997.734 ± 0.44	1519.1 ± 1.3 m/s	0.87 ± 0.01
308.15 K, m1 = 0.103	–	–	1519.3 ± 1 m/s	–
313.15 K, m1 = 0.001	–	–	1529 ± 1 m/s	–
313.15 K, m1 = 0.003	–	–	1529.3 ± 1 m/s	–
313.15 K, m1 = 0.005	–	–	1529.5 ± 1 m/s	–
313.15 K, m1 = 0.007	–	–	1529.5 ± 1 m/s	–
313.15 K, m1 = 0.008	–	–	1529.6 ± 1 m/s	–
313.15 K, m1 = 0.01	–	–	1529.7 ± 1 m/s	–
313.15 K, m1 = 0.02	–	–	1529.5 ± 1 m/s	–
313.15 K, m1 = 0.03	–	–	1529.4 ± 1 m/s	–
313.15 K, m1 = 0.05	–	–	1528.8 ± 1 m/s	–
313.15 K, m1 = 0.07	–	–	1528.2 ± 1 m/s	–
313.15 K, m1 = 0.103	–	–	1527.3 ± 1 m/s	–

Source: the NIST ThermoML archive (doi:10.1021/je9006019)
